Measurements taken from patent publication US20090111801A1, “SUBSTITUTED PYRAZINONE DERIVATIVES FOR USE AS A MEDICINE” (Janssen Pharmaceutica N.V., priority 2006, published 2009).

What was measured:
hα2A receptor = target: T1, hα2A receptor (Homo sapiens, UniProt P08913); experiment: Radioligand binding experiment for α2A-adrenoceptor ([3H]raulwolscine, CHO cell membranes); settings: [3H]raulwolscine binding; for IC50: read-out: h-α2A pIC50 (converted)
T1 construct: expressed in transfected cells; host or cells: CHO cells, stably transfected; membrane preparation
T1 sequence (P08913 1-465): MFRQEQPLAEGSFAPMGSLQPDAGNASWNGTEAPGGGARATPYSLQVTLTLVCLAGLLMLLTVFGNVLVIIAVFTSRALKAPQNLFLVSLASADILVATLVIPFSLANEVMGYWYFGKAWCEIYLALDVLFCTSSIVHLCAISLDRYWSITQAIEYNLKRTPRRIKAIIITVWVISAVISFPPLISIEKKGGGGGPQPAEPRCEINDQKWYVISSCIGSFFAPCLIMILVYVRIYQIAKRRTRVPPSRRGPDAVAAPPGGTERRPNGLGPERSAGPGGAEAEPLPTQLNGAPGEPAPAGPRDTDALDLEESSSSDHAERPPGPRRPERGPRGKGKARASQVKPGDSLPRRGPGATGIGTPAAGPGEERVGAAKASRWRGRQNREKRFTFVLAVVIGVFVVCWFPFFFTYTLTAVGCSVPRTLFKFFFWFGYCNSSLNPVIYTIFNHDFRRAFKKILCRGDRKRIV

hα2C receptor = target: T2, hα2C receptor (Homo sapiens, UniProt P18825); experiment: Radioligand binding experiment for α2C-adrenoceptor ([3H]raulwolscine, CHO cell membranes); settings: [3H]raulwolscine binding; for IC50: read-out: h-α2C pIC50 (converted)
T2 construct: expressed in transfected cells; host or cells: CHO cells, stably transfected; membrane preparation
T2 sequence (P18825 1-462): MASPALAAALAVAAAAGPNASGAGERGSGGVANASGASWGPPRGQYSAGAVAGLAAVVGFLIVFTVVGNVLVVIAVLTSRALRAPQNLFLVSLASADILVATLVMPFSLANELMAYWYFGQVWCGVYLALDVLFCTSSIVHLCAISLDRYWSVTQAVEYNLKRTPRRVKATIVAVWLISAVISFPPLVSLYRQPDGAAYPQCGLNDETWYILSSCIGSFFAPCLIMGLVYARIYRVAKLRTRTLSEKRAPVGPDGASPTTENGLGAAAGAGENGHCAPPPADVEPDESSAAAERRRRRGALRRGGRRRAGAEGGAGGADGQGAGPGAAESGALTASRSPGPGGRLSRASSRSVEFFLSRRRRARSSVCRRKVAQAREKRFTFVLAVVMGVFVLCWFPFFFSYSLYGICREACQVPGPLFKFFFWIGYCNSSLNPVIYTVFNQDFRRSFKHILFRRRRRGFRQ

5HT-Transporter = target: T3, 5HT-Transporter (Homo sapiens, UniProt P31645); experiment: Binding experiment for the 5HT-transporter ([3H]paroxetine, human platelet membranes); settings: [3H]paroxetine 0.5 nM; for IC50: read-out: h-5HTT pIC50 (converted)
T3 construct: Human platelet membranes (Oceanix Biosciences Corporation, Hanover, Md., USA) were thawed; tissue Oceanix Biosciences Corporation, Hanover, Md., USA; host or cells: human platelet membranes
T3 sequence (P31645 whole entry): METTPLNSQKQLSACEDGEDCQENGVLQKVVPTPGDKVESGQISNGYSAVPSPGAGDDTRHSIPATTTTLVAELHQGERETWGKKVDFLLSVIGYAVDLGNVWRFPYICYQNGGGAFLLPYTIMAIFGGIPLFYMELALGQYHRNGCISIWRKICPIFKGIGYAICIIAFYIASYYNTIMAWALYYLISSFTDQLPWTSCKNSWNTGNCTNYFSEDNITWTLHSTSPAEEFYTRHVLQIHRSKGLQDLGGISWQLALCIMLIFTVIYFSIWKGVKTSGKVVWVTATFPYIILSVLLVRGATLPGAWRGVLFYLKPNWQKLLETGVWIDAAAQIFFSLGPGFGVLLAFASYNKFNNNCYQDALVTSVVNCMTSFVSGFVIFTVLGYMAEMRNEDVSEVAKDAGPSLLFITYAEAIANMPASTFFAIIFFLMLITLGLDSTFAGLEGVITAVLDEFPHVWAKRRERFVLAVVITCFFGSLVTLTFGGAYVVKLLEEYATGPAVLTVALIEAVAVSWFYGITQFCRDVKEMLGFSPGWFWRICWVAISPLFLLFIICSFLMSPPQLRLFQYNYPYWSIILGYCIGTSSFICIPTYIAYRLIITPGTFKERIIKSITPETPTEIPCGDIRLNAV
Outline: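 Filter-bound radioactivity from human platelet membranes incubated with [3H]paroxetine and test compound (buffer Tris-HCl 50 mM, 120 mM NaCl, 5 mM KCl) was counted.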

Row | Compound | IC50 (hα2A receptor) | IC50 (hα2C receptor) | IC50 (5HT-Transporter) | h-α2A pIC50 (hα2A receptor) | h-α2C pIC50 (hα2C receptor) | h-5HTT pIC50 (5HT-Transporter)
1 | C/C(=C\c1ccccc1)CN1CCC(Nc2nccn(Cc3ccc(NCCN(C)C)cc3)c2=O)CC1 [1-104] | 12.6 nM | 2.51 nM | 200 nM | – | – | –
2 | C/C(=C\c1ccccc1)CN1CCC(Nc2nccn(-c3ccc(CNCCN(C)C)cc3)c2=O)CC1 [1-105] | 39.8 nM | 5.01 nM | 631 nM | – | – | –
3 | C/C(=C\c1ccccc1)CN1CCC(Nc2nccn(-c3cccc(CNCCN(C)C)c3)c2=O)CC1 [1-106] | – | – | – | 7.9 | 8.8 | 6.1
4 | C/C(=C\c1ccccc1)CN1CCC(Nc2nccn(CC(=O)NCCCN(C)C)c2=O)CC1 [1-107] | 31.6 nM | 1.58 nM | 2000 nM | – | – | –
5 | C/C(=C\c1ccccc1)CN1CCC(Nc2nccn(CC(=O)N(C)CCN(C)C)c2=O)CC1 [1-108] | 50.1 nM | 1.58 nM | 6310 nM | – | – | –
6 | C/C(=C\c1ccccc1)CN1CCC(Nc2nccn(-c3cccc(CN(C)CCN(C)C)c3)c2=O)CC1 [1-109] | – | – | – | 8.2 | 8.6 | 6.5
7 | C/C(=C\c1ccccc1)CN1CCC(Nc2nccn(CC(=O)N(C)CCN(C)Cc3ccccc3)c2=O)CC1 [1-111] | 50.1 nM | 0.794 nM | 3980 nM | – | – | –
8 | C/C(=C\c1ccccc1)CN1CCC(Nc2nccn(-c3ccc(C(=O)N(CCN(C)C)Cc4ccccc4)cc3)c2=O)CC1 [1-112] | 39.8 nM | 3.16 nM | 200 nM | – | – | –
9 | C/C(=C\c1ccccc1)CN1CCC(Nc2nccn(CC(=O)N(CCN(C)C)Cc3ccc(F)cc3)c2=O)CC1 [1-113] | 126 nM | 3.98 nM | 7940 nM | – | – | –
10 | CC(=O)NCCNC(=O)Cn1ccnc(NC2CCN(C/C(C)=C/c3ccccc3)CC2)c1=O [1-114] | 200 nM | 12.6 nM | 3980 nM | – | – | –
11 | CCCNC(=O)NCc1ccc(Cn2ccnc(NC3CCN(C/C(C)=C/c4ccccc4)CC3)c2=O)cc1 [1-115] | 251 nM | 79.4 nM | 794 nM | – | – | –
12 | C/C(=C\c1ccccc1)CN1CCC(Nc2nccn(Cc3ccc(CNC(=O)NCCS)cc3)c2=O)CC1 [1-116] | 200 nM | 126 nM | 316 nM | – | – | –
13 | CCN(CC)C(=O)NCc1ccc(-n2ccnc(NC3CCN(C/C(C)=C/c4ccccc4)CC3)c2=O)cc1 [1-117] | – | – | – | 6.7 | 8.3 | 6.3
14 | C/C(=C\c1ccccc1)CN1CCC(Nc2nccn(Cc3ccc(CNC(=O)NC4CCCCC4)cc3)c2=O)CC1 [1-118] | 398 nM | 79.4 nM | 501 nM | – | – | –
15 | C/C(=C\c1ccccc1)CN1CCC(Nc2nccn(CCCNC(=O)Nc3ccccc3)c2=O)CC1 [1-119] | 158 nM | 5.01 nM | 158 nM | – | – | –
16 | C/C(=C\c1ccccc1)CN1CCC(Nc2nccn(-c3ccc(NC(=O)Nc4ccc(F)cc4)cc3)c2=O)CC1 [1-120] | 200 nM | 25.1 nM | 126 nM | – | – | –
17 | C/C(=C\c1ccccc1)CN1CCC(Nc2nccn(CCCN(C)C(=O)Nc3ccccc3)c2=O)CC1 [1-121] | 158 nM | 6.31 nM | 794 nM | – | – | –
18 | C/C(=C\c1ccccc1)CN1CCC(Nc2nccn(CCCN(C(=O)Nc3ccccc3)c3ccccc3)c2=O)CC1 [1-122] | 100 nM | 7.94 nM | 200 nM | – | – | –

Continued, values first:

Row | IC50 (hα2A receptor) | IC50 (hα2C receptor) | IC50 (5HT-Transporter) | h-α2A pIC50 (hα2A receptor) | h-α2C pIC50 (hα2C receptor) | h-5HTT pIC50 (5HT-Transporter) | Compound
19 | 158 nM | 12.6 nM | 631 nM | – | – | – | C/C(=C\c1ccccc1)CN1CCC(Nc2nccn(CCCN(Cc3ccccc3)C(=O)Nc3ccccc3)c2=O)CC1 [1-123]
20 | 251 nM | 63.1 nM | 501 nM | – | – | – | C/C(=C\c1ccccc1)CN1CCC(Nc2nccn(Cc3ccc(CNC(=O)NCc4ccccc4)cc3)c2=O)CC1 [1-124]
21 | 158 nM | 63.1 nM | 501 nM | – | – | – | C/C(=C\c1ccccc1)CN1CCC(Nc2nccn(Cc3ccc(CNC(=O)NCCc4ccccc4)cc3)c2=O)CC1 [1-125]
22 | 251 nM | 39.8 nM | 501 nM | – | – | – | COc1cc(CNC(=O)NCc2ccc(Cn3ccnc(NC4CCN(C/C(C)=C/c5ccccc5)CC4)c3=O)cc2)cc(OC)c1 [1-126]
23 | – | – | – | 7.3 | 8.0 | 5.5 | CCOC(=O)N1CCC(NCc2cccc(-n3ccnc(NC4CCN(C/C(C)=C/c5ccccc5)CC4)c3=O)c2)CC1 [1-127]
24 | – | – | – | 7.0 | 7.9 | 5.9 | CCOC(=O)N1CCC(NCc2ccc(-n3ccnc(NC4CCN(C/C(C)=C/c5ccccc5)CC4)c3=O)cc2)CC1 [1-128]
25 | 63.1 nM | 25.1 nM | 501 nM | – | – | – | C/C(=C\c1ccccc1)CN1CCC(Nc2nccn(-c3ccc(C(=O)NC4CCN(Cc5ccccc5)CC4)cc3)c2=O)CC1 [1-129]
26 | – | – | – | 8.2 | 8.8 | 6.7 | C/C(=C\c1ccccc1)CN1CCC(Nc2nccn(-c3cccc(CNCCN4CCCC4)c3)c2=O)CC1 [1-130]
27 | 25.1 nM | 3.16 nM | 158 nM | – | – | – | C/C(=C\c1ccccc1)CN1CCC(Nc2nccn(-c3ccc(CNCCN4CCCC4)cc3)c2=O)CC1 [1-131]
28 | 316 nM | 12.6 nM | 2510 nM | – | – | – | C/C(=C\c1ccccc1)CN1CCC(Nc2nccn(CC(=O)NCCCN3CCCC3=O)c2=O)CC1 [1-132]
29 | – | – | – | 7.5 | 8.7 | 5.6 | C/C(=C\c1ccccc1)CN1CCC(Nc2nccn(-c3cccc(CNCCCN4CCCC4=O)c3)c2=O)CC1 [1-133]
30 | 12.6 nM | 1.58 nM | 501 nM | – | – | – | C/C(=C\c1ccccc1)CN1CCC(Nc2nccn(CC(=O)N(CCN3CCCC3)CC3CCCCC3)c2=O)CC1 [1-134]
31 | 12.6 nM | 0.794 nM | 794 nM | – | – | – | C/C(=C\c1ccccc1)CN1CCC(Nc2nccn(CC(=O)N(CCN3CCCC3)Cc3ccccc3)c2=O)CC1 [1-135]
32 | 10 nM | 0.316 nM | 631 nM | – | – | – | C/C(=C\c1ccccc1)CN1CCC(Nc2nccn(CC(=O)N(CCN3CCCC3)Cc3ccc(F)cc3)c2=O)CC1 [1-136]
33 | 12.6 nM | 0.794 nM | 1000 nM | – | – | – | C/C(=C\c1ccccc1)CN1CCC(Nc2nccn(CC(=O)N(CCCN3CCCC3)Cc3ccc(F)cc3)c2=O)CC1 [1-137]
34 | 7.94 nM | 0.794 nM | 1260 nM | – | – | – | C/C(=C\c1ccccc1)CN1CCC(Nc2nccn(CC(=O)N(CCN3CCCC3C)Cc3ccc(F)cc3)c2=O)CC1 (stereo not drawn) [1-138]
35 | 200 nM | 3.16 nM | 2510 nM | – | – | – | C/C(=C\c1ccccc1)CN1CCC(Nc2nccn(CC(=O)N(CCCN3CCCC3=O)Cc3ccc(F)cc3)c2=O)CC1 [1-139]
36 | 39.8 nM | 3.98 nM | 200 nM | – | – | – | C/C(=C\c1ccccc1)CN1CCC(Nc2nccn(-c3ccc(C(=O)NCCN4CCCCC4)cc3)c2=O)CC1 [1-140]
37 | 100 nM | 6.31 nM | 1580 nM | – | – | – | C/C(=C\c1ccccc1)CN1CCC(Nc2nccn(CC(=O)NCc3cccnc3)c2=O)CC1 [1-141]
38 | 158 nM | 3.16 nM | 1000 nM | – | – | – | CCN(Cc1ccncc1)C(=O)Cn1ccnc(NC2CCN(C/C(C)=C/c3ccccc3)CC2)c1=O [1-142]
39 | 79.4 nM | 3.16 nM | 2000 nM | – | – | – | C/C(=C\c1ccccc1)CN1CCC(Nc2nccn(CC(=O)N(CCCn3ccnc3)Cc3ccc(F)cc3)c2=O)CC1 [1-143]
40 | 158 nM | 6.31 nM | 3160 nM | – | – | – | C/C(=C\c1ccccc1)CN1CCC(Nc2nccn(CC(=O)NCC3CCCO3)c2=O)CC1 (stereo not drawn) [1-144]
41 | 20 nM | 1.26 nM | 794 nM | – | – | – | C/C(=C\c1ccccc1)CN1CCC(Nc2nccn(-c3cccc(CNCC4CCCO4)c3)c2=O)CC1 (stereo not drawn) [1-145]
42 | – | – | – | 7.0 | 8.6 | 6.3 | C/C(=C\c1ccccc1)CN1CCC(Nc2nccn(-c3ccc(CNCC4CCCO4)cc3)c2=O)CC1 (stereo not drawn) [1-146]
43 | 50.1 nM | 3.16 nM | 3160 nM | – | – | – | C/C(=C\c1ccccc1)CN1CCC(Nc2nccn(CC(=O)NCc3ccco3)c2=O)CC1 [1-147]
44 | 251 nM | 7.94 nM | 1260 nM | – | – | – | C/C(=C\c1ccccc1)CN1CCC(Nc2nccn(CC(=O)NCCN3CCOCC3)c2=O)CC1 [1-148]
